Assay results taken from ChEMBL document CHEMBL5029168, “Discovery of novel ID2 antagonists from pharmacophore-based virtual screening as potential therapeutics for glioma” (Bioorg Med Chem, 2021).
Calls of active or inactive are those of the source. The calls are words filed in the database; no cut-off is given here.

Assays:
GL261 [1] = test: Cytotoxicity against mouse GL261 cells assessed as reduction in cell viability incubated for 24 hrs by CCK8 assay; type: functional, cell-based; details: GL261, 24 h
Hs 683 = test: Cytotoxicity against human Hs 683 cells assessed as reduction in cell viability incubated for 24 hrs by CCK8 assay; type: functional, cell-based; details: Hs 683, 24 h
U-87 MG [2] = test: Cytotoxicity against human U87 cells assessed as reduction in cell viability incubated for 24 hrs by CCK8 assay; type: functional, cell-based, U-87MG ATCC
U87 [3] = test: Inhibition of ID2/KDR signalling in human U87 cells assessed as decrease in KDR protein level measured after 24 hrs by western blot analysis; type: cell-based; details: filed as antagonist
[4] = Toxicity in NCG mouse […] with human U87 cells assessed as lung damage at 2.5 mg/kg, ip administered every other day for 5 days and measured after 7 days post first dose by H and E staining based assay; type: organism-based; details: in vivo, 168 h, time 7 day
GL261 [5] = test: Induction of apoptosis in mouse GL261 cells assessed as dead cells at 50 uM measured after 24 hrs by annexin V-FITC/propidium iodide staining based flow cytometry analysis (reference value: 1.22%); type: functional
U87 [6] = test: Inhibition of ID2/KDR signalling in human U87 cells assessed as reduction in ID2 mRNA expression at 12.5 to 50 uM measured after 24 hrs by qRT-PCR analysis; type: cell-based; details: filed as antagonist, dose 12.5-50 µM
GL261 [7] = test: Induction of apoptosis in mouse GL261 cells assessed as late apoptotic cells at 25 uM measured after 24 hrs by annexin V-FITC/propidium iodide staining based flow cytometry analysis (reference value: 1.01%); type: functional
GL261 [8] = test: Induction of apoptosis in mouse GL261 cells assessed as viable cells at 25 uM measured after 24 hrs by annexin V-FITC/propidium iodide staining based flow cytometry analysis (reference value: 96.1%); type: functional; details: read-out: Activity
U-87 MG [9] = test: Induction of apoptosis in human U87 cells assessed as viable cells at 25 uM measured after 24 hrs by annexin V-FITC/propidium iodide staining based flow cytometry analysis (reference value: 89.6%); type: functional, U-87MG ATCC; details: read-out: Activity
U-87 MG [10] = test: Induction of apoptosis in human U87 cells assessed as dead cells at 25 uM measured after 24 hrs by annexin V-FITC/propidium iodide staining based flow cytometry analysis (Rvb =3.52 %); type: functional, U-87MG ATCC
Homo sapiens [11] = organism: Homo sapiens; test: Binding affinity to CM5 sensor chip immobilized human ID2 assessed as maximum response by SPR analysis; details: filed as antagonist
U-87 MG [12] = test: Antimigratory activity against human U87 cells assessed as inhibition of cell migration measured after 24 hrs by crystal violet staining based inverted microscopic analysis; type: functional; details: U-87MG ATCC
U87 [13] = test: Inhibition of ID2/KDR signalling in human U87 cells assessed as decrease in ID2 protein level measured after 24 hrs by western blot analysis; type: cell-based; details: filed as antagonist
U-87 MG [14] = test: Induction of apoptosis in human U87 cells assessed as early apoptotic cells at 25 uM measured after 24 hrs by annexin V-FITC/propidium iodide staining based flow cytometry analysis (reference value: 4.35%); type: functional, U-87MG ATCC
U87 [15] = test: Inhibition of ID2/KDR signalling in human U87 cells assessed as reduction in MMP9 expression at 12.5 to 50 uM measured after 24 hrs by western blot analysis; type: cell-based; details: filed as antagonist, dose 12.5-50 µM
Homo sapiens [16] = organism: Homo sapiens; test: Binding affinity to CM5 sensor chip immobilized human ID2 assessed as association constant by SPR analysis; details: filed as antagonist
U-87 MG [17] = test: Antimigratory activity against human U87 cells assessed as reduction in wound closure at 12.5 uM measured up to 24 hrs by scratch wound healing assay (Rvb =61.5+/-10.21%); type: functional, U-87MG ATCC; set-up: scale not given: the % may be the effect or the level left; details: time hrs <=24
GL261 [18] = test: Induction of apoptosis in mouse GL261 cells assessed as early apoptotic cells at 25 uM measured after 24 hrs by annexin V-FITC/propidium iodide staining based flow cytometry analysis (reference value: 1.67%); type: functional
[19] = Antitumor activity against human U87 cells xenografted in NCG mouse assessed as tumor growth inhibition at 2.5 mg/kg, ip administered every other day for 5 days relative to control; type: functional, U-87MG ATCC; set-up: scale not given: the % may be the effect or the level left; details: time 5 day
[20] = Binding affinity to CM5 sensor chip immobilized human ID2 assessed as dissociation constant by SPR analysis
GL261 [21] = test: Antimigratory activity against mouse GL261 cells assessed as inhibition of cell migration measured after 24 hrs by crystal violet staining based inverted microscopic analysis; type: functional
U-87MG ATCC [22] = test: Antitumor activity against human U87 cells xenografted in NCG mouse assessed as reduction in Ki67 expression in tumor at 2.5 mg/kg, ip administered every other day for 5 days and measured after 7 days post first dose by immunohistochemical analysis; type: functional, organism-based; details: time 7.0 day
GL261 [23] = test: Antimigratory activity against mouse GL261 cells assessed as reduction in wound closure at 12.5 uM measured up to 24 hrs by scratch wound healing assay (Rvb =63.3+/-0.78%); type: functional; set-up: scale not given: the % may be the effect or the level left; details: time hrs <=24
GL261 [24] = test: Induction of apoptosis in mouse GL261 cells assessed as late apoptotic cells at 50 uM measured after 24 hrs by annexin V-FITC/propidium iodide staining based flow cytometry analysis (reference value: 1.01%); type: functional
[25] = Antitumor activity against human U87 cells xenografted in NCG mouse assessed as reduction in tumor weight at 2.5 mg/kg, ip administered every other day for 5 days and measured after 12 days relative to control; type: functional, U-87MG ATCC; set-up: scale not given: the % may be the effect or the level left; details: time 12 day
U-87 MG [26] = test: Induction of apoptosis in human U87 cells assessed as viable cells at 50 uM measured after 24 hrs by annexin V-FITC/propidium iodide staining based flow cytometry analysis (reference value: 89.6%); type: functional, U-87MG ATCC; details: read-out: Activity
U87 [27] = test: Inhibition of ID2/KDR signalling in human U87 cells assessed as reduction in MMP2 expression at 12.5 to 50 uM measured after 24 hrs by western blot analysis; type: cell-based; details: filed as antagonist, dose 12.5-50 µM
U-87 MG [28] = test: Induction of apoptosis in human U87 cells assessed as late apoptotic cells at 25 uM measured after 24 hrs by annexin V-FITC/propidium iodide staining based flow cytometry analysis (reference value: 2.56%); type: functional, U-87MG ATCC
U-87 MG [29] = test: Induction of apoptosis in human U87 cells assessed as late apoptotic cells at 50 uM measured after 24 hrs by annexin V-FITC/propidium iodide staining based flow cytometry analysis (reference value: 2.56%); type: functional, U-87MG ATCC
GL261 [30] = test: Antiinvasive activity against mouse GL261 cells assessed as inhibition of cell invasion measured after 24 hrs by crystal violet staining based inverted microscopic analysis; type: functional
[31] = Toxicity in NCG mouse […] with human U87 cells assessed as kidney damage at 2.5 mg/kg, ip administered every other day for 5 days and measured after 7 days post first dose by H and E staining based assay; type: organism-based; details: in vivo, 168 h, time 7 day
[32] = Toxicity in NCG mouse xenografted with human U87 cells assessed as reduction in body weight at 2.5 mg/kg, ip administered every other day for 5 days and measured after 12 days; type: organism-based; details: in vivo, 288 h, time 12 day
[33] = Aqueous solubility of compound at up to 80 uM measured after 10 mins by optical microscopic analysis; type: physicochemical; details: buffer
NIH3T3 = test: Cytotoxicity against mouse 3T3 cells assessed as reduction in cell viability at up to 100 nM incubated for 24 hrs by CCK8 assay; type: cell-based; details: nih3t3, 24 h
U-87 MG [34] = test: Induction of apoptosis in human U87 cells assessed as early apoptotic cells at 50 uM measured after 24 hrs by annexin V-FITC/propidium iodide staining based flow cytometry analysis (reference value: 4.35%); type: functional, U-87MG ATCC
U-87 MG [35] = test: Induction of apoptosis in human U87 cells assessed as dead cells at 50 uM measured after 24 hrs by annexin V-FITC/propidium iodide staining based flow cytometry analysis (Rvb =3.52 %); type: functional, U-87MG ATCC
[36] = Toxicity in NCG mouse […] with human U87 cells assessed as liver damage at 2.5 mg/kg, ip administered every other day for 5 days and measured after 7 days post first dose by H and E staining based assay; type: organism-based; details: in vivo, 168 h, time 7 day
U87 [37] = test: Inhibition of ID2/KDR signalling in human U87 cells assessed as reduction in KDR mRNA expression at 12.5 to 50 uM measured after 24 hrs by qRT-PCR analysis; type: cell-based; details: filed as antagonist, dose 12.5-50 µM
U87 [38] = test: Inhibition of ID2/KDR signalling in human U87 cells assessed as decrease in VEGFA protein level measured after 24 hrs by western blot analysis; type: cell-based; details: filed as antagonist
L02 = test: Cytotoxicity against human L02 cells assessed as reduction in cell viability at up to 100 nM incubated for 24 hrs by CCK8 assay; type: cell-based; details: l02, 24 h
U-87MG ATCC [39] = test: Antitumor activity against human U87 cells xenografted in NCG mouse assessed as reduction in CD31 marker expression in tumor at 2.5 mg/kg, ip administered every other day for 5 days and measured after 7 days post first dose by immunohistochemical analysis; type: functional, organism-based; details: time 7.0 day
GL261 [40] = test: Induction of apoptosis in mouse GL261 cells assessed as viable cells at 50 uM measured after 24 hrs by annexin V-FITC/propidium iodide staining based flow cytometry analysis (reference value: 96.1%); type: functional; details: read-out: Activity
[41] = Toxicity in NCG mouse xenografted with human U87 cells assessed as heart damage at 2.5 mg/kg, ip administered every other day for 5 days and measured after 7 days post first dose by H and E staining based assay; type: organism-based; details: in vivo, 168 h, time 7 day
U-87 MG [42] = test: Antiinvasive activity against human U87 cells assessed as inhibition of cell invasion measured after 24 hrs by crystal violet staining based inverted microscopic analysis; type: functional; details: U-87MG ATCC
U87 [43] = test: Inhibition of ID2/KDR signalling in human U87 cells assessed as increase in PTEN expression at 12.5 to 50 uM measured after 24 hrs by western blot analysis; type: cell-based; details: filed as antagonist, dose 12.5-50 µM
GL261 [44] = test: Induction of apoptosis in mouse GL261 cells assessed as early apoptotic cells at 50 uM measured after 24 hrs by annexin V-FITC/propidium iodide staining based flow cytometry analysis (reference value: 1.61%); type: functional

COc1ccccc1[C@H](CNC(=O)CCc1c[nH]c2ccccc12)N1CCCC1
IC50 (GL261 [1]): 94.6 µM
IC50 (Hs 683): > 100 µM
IC50 (U-87 MG [2]): > 100 µM

O=C(Cc1cccc2ccccc12)NNC(=O)Nc1cccc(Cl)c1
IC50 (GL261 [1]): > 100 µM
IC50 (Hs 683): > 100 µM
IC50 (U-87 MG [2]): > 100 µM

COc1cccc2c1OC(c1ccc(F)cc1)N1N=C(c3ccccc3)CC21 (stereo unspecified)
IC50 (GL261 [1]): > 100 µM
IC50 (Hs 683): > 100 µM
IC50 (U-87 MG [2]): > 100 µM

O=C(C[C@@]1(O)C(=O)N(Cc2cccc(Cl)c2)c2ccccc21)c1ccccn1
inhibition (U87 [3]): Dose-Dependent Effect
Activity [4]: Non-Toxic
Activity (GL261 [5]): 11%
inhibition (U87 [6]): Active
Activity (GL261 [7]): 16%
viability at 25 µM (GL261 [8]): 70.2%
viability at 25 µM (U-87 MG [9]): 8.04%
Activity (U-87 MG [10]): 2.72%
Rmax (Homo sapiens [11]): 83.6 RU
Activity (U-87 MG [12]): Dose-Dependent Effect
inhibition (U87 [13]): Dose-Dependent Effect
Activity (U-87 MG [14]): 45.4%
inhibition (U87 [15]): Active
Ka (Homo sapiens [16]): 24.8 M⁻¹ s⁻¹
Activity (U-87 MG [17]): 5.59%
Activity (GL261 [18]): 8.24%
Activity [19]: 49.7%
Kd [20]: 0.129 µM
IC50 (GL261 [1]): 38.2 µM
IC50 (Hs 683): 34.2 µM
Activity (GL261 [21]): Dose-Dependent Effect
Activity (U-87MG ATCC [22]): Active
Activity (GL261 [23]): 13.11%
Activity (GL261 [24]): 69.3%
Activity [25]: 57.8%
viability at 50 µM (U-87 MG [26]): 2.61%
inhibition (U87 [27]): Active
Activity (U-87 MG [28]): 43.9%
Activity (U-87 MG [29]): 68.8%
Activity (GL261 [30]): Dose-Dependent Effect
Activity [31]: Non-Toxic
Activity [32]: Non-Toxic
solubility [33]: Soluble
Activity (NIH3T3): Non-Toxic
Activity (U-87 MG [34]): 27.3%
Activity (U-87 MG [35]): 1.29%
Activity [36]: Non-Toxic
inhibition (U87 [37]): Active
inhibition (U87 [38]): Dose-Dependent Effect
Activity (L02): Non-Toxic
Activity (U-87MG ATCC [39]): Active
viability at 50 µM (GL261 [40]): 6.58%
Activity [41]: Non-Toxic
Activity (U-87 MG [42]): Dose-Dependent Effect
inhibition (U87 [43]): Active
IC50 (U-87 MG [2]): 27.3 µM
Activity (GL261 [44]): 13.1%
